Molecular target: interaction between ACE-2 receptor and spike S1 protein of SARS-CoV2 (Severe acute respiratory syndrome coronavirus 2, UniProt P0DTC2)

| Sequence | interaction between ACE-2 receptor and spike S1 protein in presence of peptide |
| --- | --- |
| DKFNHEAEDLFY [Peptide 4] | blocked |
| QTFDKNHEDLYLQAKQLK [Peptide 3] | blocked |
